# In EP1285919A1, “C10 Carbonate substituted taxanes as antitumor agents” (Florida State University Research Foundation, Inc., priority 2001, dated 2003):
# Key:
# [1] = tested on: A375 Human Melanoma Xenografts; assay: In vivo evaluation against A375 melanoma xenografts
# Protocol: In Vivo Evaluation of Antitumor Compounds Against A375 Human Melanoma Xenografts
# Antitumor compounds were prepared in a vehicle of 5% ethanol, 5% Cremophor and 90% isotonic saline in the manner as described for Solution 1 of Example 10. Taxol (paclitaxel; Bristol Meyers Squibb) and Taxotere (docetaxel; Rhône-Poulenc Rorer) were obtained as the marketed pharmaceutical drugs. The dosing volume was 0.3 ml per 20 g mouse.
# Female NCr-nude mice were implanted subcutaneously with 1 mm^3 A375 melanoma fragments in the flank were sorted into treatment groups of six mice each, except the Taxotere treatment group which was a group of seven mice. […] Dosing was initiated on Day 1. The antitumor compounds were given i.v. at an estimated maximum tolerated dose (MTD) appropriate for each agent on a qd x 1 schedule (single administration of compound). The i.v. taxol was given on the qd x 1 schedule as two split doses (one hour between) of 12 mg/kg per split dose (total dose = 24 mg/kg). Taxol was also administered i.p. on a qd x 5 schedule at a daily dose of 18 mg/kg. Taxotere was given i.v. on a qd x 1 schedule at a dose of 70 mg/kg. The vehicle was administered i.v. to control mice in Group 1 on the qd x 1 schedule. The study was terminated on Day 60. Treatment groups are detailed in Table 7.
# The results are summarized in Table 8 and include mean days of survival (MDS), number of toxic deaths, number of survivors, number of complete or partial responses, and number with stable disease. The mean days of survival is the number of days after which a neoplasm reached a size of 2.0 g and the animal was euthanized. A complete response is obtained […].
# [2] = tested on: MX-1 Human Breast Carcinoma Xenograft; assay: In vivo evaluation of oral administration against MX-1 breast carcinoma xenograft
# Protocol: In Vivo Evaluation of the Oral Administration of Antitumor Compounds Against the MX-1 Human Breast Carcinoma Xenograft
# The compounds were prepared in the following vehicle: 90% saline, 5% Cremophor, and 5% ethanol.
# [3] = tested on: SK-MES carcinoma
# Protocol: (§1) In Vivo Evaluation of Antitumor Compounds Against Human Lung Carcinoma Xenografts
# (§2) The compounds were prepared in the manner as described for Solution 2 of Example 10. Taxol (paclitaxel, Bristol Meyers Squibb), used as a control, was obtained as the marketed pharmaceutical drug.
# (§3) Taxol itself was given as a split i.v. dose of 36 mg/kg, with the two 18 mg/kg doses separated by one hour. Vehicle control animals were dosed twice intravenously with half the total volume being given separated by one hour. The study was terminated on Day 60.
# (§4) The results are summarized in Table 1 and include mean days of survival (MDS), number of toxic deaths, number of survivors, number of complete or partial responses, and number with stable disease. The mean days of survival is the number of days after which a SKMES neoplasm reached a size of 1.5 g and the animal was euthanized. A complete response is obtained if the tumor is not palpable at the end of the study. A partial response is obtained if the tumor shrinks to a size smaller than its size on Day 1 of the study.
# (§5) A tumor scoring system was designed to provide a more quantitative ranking of efficacy (therapeutic potential) among the antitumor agents evaluated against the different human solid tumor xenografts. Each mouse in a study was given a score of from 1 to 10 at the end of the study. The scores can be summarized as follows:
# (§6) The individual score for each mouse was averaged into a mean score for each treatment group. […]
# [4] = tested on: NCI-H1299 (H1299) carcinoma
# Protocol: as §1, §2, §3, §4, §5, §6
# The treatment protocol for the H1299 test was identical to the SK-MES test protocol. […]
# [5] = tested on: SKMES Human Lung Carcinoma Xenograft; settings: Group 3: 40 mg/kg single oral bolus Day 1, 6 mice, study to Day 60
# Protocol: The compound was administered as a single bolus by the oral route in a study to investigate the efficacy of this compound against the SKMES human lung cancer xenograft.
# Female Nu/Nu mice (6-8 weeks of age; implanted with 1 mm^3 SKMES lung carcinoma fragments in the flank) were sorted into four treatment groups of six mice each. SKMES size ranges and group mean SKMES size ranges were 126-448 mg and 238-241 mg, respectively. […] Treatments were administered as a single oral bolus on Day 1, and the study was terminated on Day 60.
# as §4, with “Table 13” for “Table 1”, “of 2.0” for “of 1.5”
# The total response rate was 100% with four complete responses and two partial responses. The total response rate is defined as the percentage of evaluable animals (excluding deaths due to procedure or toxicity) in a group that experience complete or partial responses at the termination of the study.
# [6] = Group 4: 72.6 mg/kg i.p. qd x 1, 6 mice, study to Day 60
# [7] = Group 3: 73 mg/kg single oral bolus Day 1, 6 mice, study to Day 63
# [8] = number of mice of six, i.v. split dose qd x 1, Taxol 36 mg/kg, 1755 49 mg/kg
# [9] = Group 2: 24 mg/kg i.v. qd x 1 (two split doses of 12 mg/kg), 6 mice, study to Day 60
# [10] = Group 3: 18 mg/kg i.p. qd x 5, 6 mice, study to Day 60
structure (smiles),measurement,setting,value
CCOC(=O)O[C@H]1C(=O)[C@@]2(C)[C@H]([C@H](OC(=O)c3ccccc3)[C@]3(O)C[C@H](OC(=O)[C@H](O)[C@H](C=C(C)C)NC(=O)OC(C)(C)C)C(C)=C1C3(C)C)[C@]1(OC(C)=O)CO[C@@H]1C[C@@H]2O [Compound 1781],Toxic Deaths,"[1]; 1781 i.v. qd x 1 at estimated MTD, six mice",five
same,Complete Response,[1]; [6],0
same,Mean Score,[1]; [6],0.5 ± 0.5
same,Partial Response,[1]; [6],0
same,Stable Disease,[1]; [6],0
same,Survivors,[1]; [6],0
same,Toxic Deaths,[1]; [6],5
same,mean group weight losses,"[1]; mouse, in vivo, iv",20-30%
same,Mean Day of Survival (n),"[2]; Group 3: 73 mg/kg single oral bolus Day 1, 6 mice, n=5, 1.5 g endpoint, study to Day 63",33.3 ± 2.9 (5)
same,Maximum Weight Loss (Day),"[2]; Group 3: 73 mg/kg single oral bolus Day 1, 6 mice, on Day 5",-9.4% (5)
same,Complete Response,[2]; [7],0
same,Partial Response,[2]; [7],0
same,Stable Disease,[2]; [7],1
same,Toxic Deaths,[2]; [7],0
same,survival versus vehicle controls,"[2]; single oral bolus Day 1, for 1771 the other two mice of the group",significant survival extensions
CC(=O)O[C@H]1C(=O)[C@@]2(C)[C@H]([C@H](OC(=O)c3ccccc3)[C@]3(O)C[C@H](OC(=O)[C@H](O)[C@@H](NC(=O)c4ccccc4)c4ccccc4)C(C)=C1C3(C)C)[C@]1(OC(C)=O)CO[C@@H]1C[C@@H]2O [Taxol],survival extension compared to vehicle controls,[3]; Taxol 36 mg/kg i.v.,30%
same,MDS (n),"[3]; mean days of survival until tumor 1.5 g, i.v. split dose qd x 1, Taxol 36 mg/kg, 1755 49 mg/kg, six mice per group",16 ± 2.0 (6) days
same,Toxic Deaths,[3]; [8],0
same,Survivors,"[3]; number of mice of six, study ended Day 60",0
same,Stable Disease,"[3]; number of mice of six, tumor below 1.5 g at end of study",0
same,Complete Response,"[3]; number of mice of six, tumor not palpable at end of study",0
same,Partial Response,"[3]; number of mice of six, tumor smaller than on Day 1",0
same,Mean Score,"[3]; tumor score 1 to 10 per mouse, averaged per group (10 = complete response)",1.3 ± 0.3
same,survival extension compared to vehicle-treated animals,"[4]; Taxol 36 mg/kg i.v., five animals",10%
same,MDS (n),"[4]; mean days of survival, i.v. split dose qd x 1, Taxol 36 mg/kg, 1755 49 mg/kg, six mice per group",27.0 ± 4.6 (5) days
same,Complete Response,[4]; number of mice of six,0
same,Stable Disease,[4]; number of mice of six,0
same,Survivors,[4]; number of mice of six,1
same,Toxic Deaths,[4]; [8],0
same,Mean Score,"[4]; tumor score 1 to 10 per mouse, averaged per group",2.7 ± 1.3
same,MDS (n),"[1]; Group 2: 24 mg/kg i.v. qd x 1 (two split doses of 12 mg/kg), 6 mice, n=4, 2.0 g endpoint, study to Day 60",18.1 ± 0.6 (4) days
same,Complete Response,[1]; [9],0
same,Mean Score,[1]; [9],0.8 ± 0.3
same,Partial Response,[1]; [9],0
same,Stable Disease,[1]; [9],0
same,Survivors,[1]; [9],0
same,Toxic Deaths,[1]; [9],2
same,Complete Response,[1]; [10],0
same,Mean Score,[1]; [10],0 ± 0
same,Partial Response,[1]; [10],0
same,Stable Disease,[1]; [10],0
same,Survivors,[1]; [10],0
same,Toxic Deaths,[1]; [10],6
same,animals died of toxicity,"[1]; Taxol 18 mg/kg i.p. qd x 5, six mice",six
same,survival extension compared to Group 1 controls,"[1]; i.v. qd x 1, Taxol 24 mg/kg, Taxotere 70 mg/kg",26%
same,MDS,"[1]; i.v. qd x 1, Taxol 24 mg/kg, Taxotere 70 mg/kg, 2.0 g cut-off",18.1 days
same,MDS (n),"[5]; n=6, 2.0 g endpoint",13.2 ± 1.4(6) days
same,% Total Response,[5],0%
same,Complete Response,[5],0
same,Partial Response,[5],0
same,Stable Disease,[5],0
same,Survivors,[5],0
same,Toxic Deaths,[5],0
